Holding throughout (test): relative viability (nuclei count vs DMSO), 5 days (fraction); higher = more cells survive
One experiment has as its system NCI-H1623. The method, boiled down:
(§1)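 Lung cancer cell lines were seeded in 1536-well plates and dosed by pin tool the next day, with either a single drug or a fixed anchor-drug dose combined with five library-drug doses (not always all listed) spaced in √10 steps. Five days later, one step fixed the cells and stained their nuclei (final 0.05% Triton X-100, 1% formaldehyde, 1 ug/ml Hoechst), and nuclei were counted on 4× images. Relative viability is the nuclei count in treated wells divided by the count in vehicle wells, and each value is the median of duplicate plates.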

For a further experiment, the system named is CAL-12T. The method, boiled down:
as §1

For another experiment, the system named is NCI-H1648. An outline of the steps: as §1
For the next experiment, the system named is NCI-H1703. An outline of the steps:
as §1

A further experiment relates to NCI-H1299. An outline of the steps: as §1
The test system of another experiment is EBC-1. The method, boiled down:
as §1

Another experiment deals with IA-LM. An outline of the steps:
as §1

The next experiment deals with A549. The method, boiled down:
as §1

The subject of the next experiment is Calu-6. An outline of the steps: as §1

For the compound `Clc1ccc(Nc2nnc(Cc3ccncc3)c3ccccc23)cc1` [Vatalanib] + COc1cccc2cc(-c3nc([C@H]4CC[C@H](C(=O)O)CC4)n4ncnc(N)c34)[nH]c12 [OSI-027] (partner 0.5 µM), the relative viability worked out at 0.39 in the experiment on NCI-H1623 (first compound 0.04 µM); 0.618 in the experiment on NCI-H1623 (first compound 0.1265 µM); 0.446 in the experiment with NCI-H1623 (first compound 0.4 µM); 0.418 in the experiment on NCI-H1623 (first compound 1.265 µM); 0.386 in the experiment on NCI-H1623 (first compound 4 µM); 0.574 with CAL-12T (first compound 0.04 µM). Further, the relative viability in the experiment on CAL-12T (first compound 0.1265 µM) was 0.523; with CAL-12T (first compound 0.4 µM) it was 0.583; with CAL-12T (first compound 1.265 µM), 0.556; in the experiment on CAL-12T (first compound 4 µM) it was 0.581; in the experiment on NCI-H1648 (first compound 0.04 µM), 0.258; in the experiment with NCI-H1648 (first compound 0.1265 µM), 0.265. The relative viability in the experiment with NCI-H1648 (first compound 0.4 µM) is 0.299; in the experiment with NCI-H1648 (first compound 1.265 µM), 0.238; in the experiment on NCI-H1648 (first compound 4 µM) it was 0.255.

As to `COc1cc(N2CCC(C(N)=O)CC2)ccc1Nc1nc(N)c(Cl)c(Nc2ccccc2S(=O)(=O)C(C)C)n1` [HG-5-88-01] + Cc1cc(Nc2cc(N3CCN(C)CC3)nc(Sc3ccc(NC(=O)C4CC4)cc3)n2)n[nH]1 [Tozasertib] (partner 0.1 µM), the relative viability in the experiment on NCI-H1623 (first compound 0.04 µM) was 0.512; in the experiment with NCI-H1623 (first compound 0.1265 µM) it was 0.449; with NCI-H1623 (first compound 0.4 µM) it was 0.399; in the experiment on NCI-H1623 (first compound 4 µM), 0.377; with CAL-12T (first compound 0.04 µM), 0.274; with CAL-12T (first compound 0.1265 µM), 0.359. Further, the relative viability with CAL-12T (first compound 0.4 µM) turned out to be 0.289; with CAL-12T (first compound 1.265 µM), 0.199; in the experiment on CAL-12T (first compound 4 µM), 0.243; with NCI-H1648 (first compound 0.04 µM) it was 0.406; with NCI-H1648 (first compound 0.1265 µM), 0.472; with NCI-H1648 (first compound 0.4 µM) it was 0.43. Further, the relative viability was 0.183 with NCI-H1648 (first compound 1.265 µM) and 0.329 in the experiment on NCI-H1648 (first compound 4 µM).

As for `CC(C)Oc1cc(Nc2nc(N[C@@H](C)c3ccc(F)cn3)ncc2Cl)n[nH]1` [AZ23] + COc1cccc2cc(-c3nc([C@H]4CC[C@H](C(=O)O)CC4)n4ncnc(N)c34)[nH]c12 [OSI-027] (partner 0.5 µM), the relative viability in the experiment with NCI-H1623 (first compound 0.01 µM) was determined as 0.401; in the experiment with NCI-H1623 (first compound 0.03162 µM) it was 0.401; with NCI-H1623 (first compound 0.3162 µM) it was 0.43; with CAL-12T (first compound 0.03162 µM), 0.593; in the experiment on CAL-12T (first compound 0.3162 µM), 0.778; in the experiment on NCI-H1648 (first compound 0.03162 µM), 0.258. Besides, in the experiment on NCI-H1648 (first compound 0.3162 µM), the relative viability came out at 0.256.

`C[C@@H]1CN(CC(=O)Nc2ccc3c(c2)Cc2cccc(-c4cc(=O)cc(N5CCOCC5)o4)c2S3)C[C@H](C)O1` + Cc1cc(Nc2cc(N3CCN(C)CC3)nc(Sc3ccc(NC(=O)C4CC4)cc3)n2)n[nH]1 [Tozasertib] (partner 0.1 µM): the relative viability in the experiment with NCI-H1623 (first compound 0.04 µM) was 0.461; in the experiment with NCI-H1623 (first compound 0.1265 µM), 0.409; in the experiment on NCI-H1623 (first compound 0.4 µM), 0.406; in the experiment on NCI-H1623 (first compound 4 µM), 0.417; with CAL-12T (first compound 0.04 µM), 0.306; in the experiment on CAL-12T (first compound 0.1265 µM), 0.366. Further, the relative viability came out at 0.296 in the experiment on CAL-12T (first compound 0.4 µM); 0.217 in the experiment on CAL-12T (first compound 4 µM); 0.3 with NCI-H1648 (first compound 0.04 µM); 0.421 with NCI-H1648 (first compound 0.1265 µM); 0.542 with NCI-H1648 (first compound 0.4 µM); 0.395 in the experiment with NCI-H1648 (first compound 4 µM).

Consider `C[C@@H]1CN(CC(=O)Nc2ccc3c(c2)Cc2cccc(-c4cc(=O)cc(N5CCOCC5)o4)c2S3)C[C@H](C)O1` + COc1cc2c(Oc3ccc(NC(=O)C4(C(=O)Nc5ccc(F)cc5)CC4)cc3F)ccnc2cc1OCCCN1CCOCC1 [Foretinib] (partner 0.25 µM), for which the relative viability in the experiment on NCI-H1703 (first compound 0.04 µM) is 0.367; with NCI-H1703 (first compound 0.1265 µM), 0.299; in the experiment on NCI-H1703 (first compound 0.4 µM) it was 0.36; with NCI-H1703 (first compound 4 µM) it was 0.295; in the experiment on NCI-H1299 (first compound 0.04 µM), 1.11; in the experiment on NCI-H1299 (first compound 0.1265 µM), 1.1. Also, the relative viability in the experiment with NCI-H1299 (first compound 0.4 µM) worked out at 1.06; in the experiment on NCI-H1299 (first compound 4 µM), 0.995; in the experiment with EBC-1 (first compound 0.04 µM), 0.119; with EBC-1 (first compound 0.1265 µM), 0.113; in the experiment with EBC-1 (first compound 0.4 µM) it was 0.102; in the experiment with EBC-1 (first compound 4 µM), 0.129. The relative viability in the experiment with NCI-H1623 (first compound 0.04 µM) came out at 0.771; in the experiment with NCI-H1623 (first compound 0.1265 µM) it was 0.837; in the experiment on NCI-H1623 (first compound 0.4 µM), 0.88; with NCI-H1623 (first compound 4 µM), 0.786; with IA-LM (first compound 0.04 µM), 1.19; in the experiment on IA-LM (first compound 0.1265 µM), 1.37. Also, the relative viability was 1.27 in the experiment on IA-LM (first compound 0.4 µM); 0.56 with IA-LM (first compound 4 µM); 0.818 with A549 (first compound 0.04 µM); 1.01 in the experiment on A549 (first compound 0.1265 µM); 0.895 in the experiment on A549 (first compound 0.4 µM); 0.823 in the experiment on A549 (first compound 4 µM). The relative viability in the experiment with CAL-12T (first compound 0.04 µM) was determined as 1.13; in the experiment with CAL-12T (first compound 0.1265 µM), 1.06; with CAL-12T (first compound 0.4 µM), 1.01; in the experiment with CAL-12T (first compound 4 µM), 0.764; with Calu-6 (first compound 0.04 µM), 0.859; in the experiment with Calu-6 (first compound 0.1265 µM), 0.841. Also, the relative viability was 0.896 in the experiment on Calu-6 (first compound 0.4 µM) and 0.639 in the experiment with Calu-6 (first compound 4 µM).

As to `CC(C)Oc1cc(Nc2nc(N[C@@H](C)c3ccc(F)cn3)ncc2Cl)n[nH]1` [AZ23] + COc1cc2c(Oc3ccc(NC(=O)C4(C(=O)Nc5ccc(F)cc5)CC4)cc3F)ccnc2cc1OCCCN1CCOCC1 [Foretinib] (partner 0.25 µM), the relative viability in the experiment on NCI-H1703 (first compound 0.01 µM) turned out to be 0.331; with NCI-H1703 (first compound 0.03162 µM), 0.342; in the experiment on NCI-H1703 (first compound 0.3162 µM), 0.314; in the experiment with NCI-H1299 (first compound 0.01 µM) it was 1.19; in the experiment with NCI-H1299 (first compound 0.03162 µM), 1.16; in the experiment on NCI-H1299 (first compound 0.3162 µM), 1.18. Further, the relative viability with EBC-1 (first compound 0.01 µM) was determined as 0.103; in the experiment with EBC-1 (first compound 0.03162 µM), 0.105; with EBC-1 (first compound 0.3162 µM), 0.0863; in the experiment on NCI-H1623 (first compound 0.01 µM), 0.712; in the experiment with NCI-H1623 (first compound 0.03162 µM) it was 0.924; with NCI-H1623 (first compound 0.3162 µM) it was 0.966. Further, the relative viability amounted to 1.35 with IA-LM (first compound 0.01 µM); 1.17 in the experiment on IA-LM (first compound 0.03162 µM); 1.33 in the experiment on IA-LM (first compound 0.3162 µM); 1.01 in the experiment with A549 (first compound 0.01 µM); 1.03 in the experiment on A549 (first compound 0.03162 µM); 1.08 in the experiment with A549 (first compound 0.3162 µM). For the same compound, the relative viability came to 1.14 in the experiment with CAL-12T (first compound 0.03162 µM), 0.884 in the experiment on CAL-12T (first compound 0.3162 µM), 0.923 in the experiment on Calu-6 (first compound 0.03162 µM) and 0.867 in the experiment on Calu-6 (first compound 0.3162 µM).

These data come from the supplement of paper PMC10307832.
